Test results taken from patent publication US20230292743A1, “Method for increasing the lifespan and motility of animal sperm using an inhibitor of Slo3 potassium channel” (IMV TECHNOLOGIES, priority 2017, published 2023).

Tested on: mouse sperm
Assay: Ability of mouse sperm to fertilize oocytes after incubation in capacitation medium (in vitro fertilization, 2-cell embryos)
Format: cell-based
Conditions: 25 μM quinidine in M16-BSA medium, 12 hours incubation, vs control
Protocol: Mouse sperm was obtained by manual trituration of caudae epididymides from male and were allowed to swim in M2 medium (from Sigma) for 10 minutes. The M2 medium composition in g/L is as follows: CaCl2 0.25; MgSO4 (anhydrous) 0.1649; KCl 0.35635; K2HPO4 0.162; NaHCO3 0.35; NaCl 5.53193; Albumin, Bovine Fraction V 4.0; D-Glucose 1.0; HEPES (for 4-(2-HydroxyEthyl)-1-Piperazine EthaneSulfonic acid)×Na 5.42726; Pyruvic Acid×Na 0.0363; DL-Lactic Acid×Na 2.95). Sperm were then capacitated in M16 medium (from Sigma) with 2% fatty acid-free BSA (for Bovine Serum Albumin) (named “M16-BSA medium”) at 37° C. in a 5% v/v CO2 incubator for different times as specified. M16 medium is a commercial and commonly used medium for in vitro fertilization and culture of preimplantation stage embryos. Oocytes were collected from mature OF1 females, synchronized with 5 units of pregnant mare serum gonadotrophin (PMSG) and 5 units of human chorionic gonadotrophin (HCG). Cumulus were harvested directly from the ampulla and sperm were injected into the M16 droplets containing the cumulus. 1. The first test related to the ability of mouse sperm to fertilize oocytes when incubated prior fertilization in a capacitation medium containing clofilium with regard to a control medium, which is the same capacitation medium but without clofilium. The capacitation medium was M16-BSA medium. The control medium was the M16-BSA medium containing the sperm. It was compared to the same medium further including clofilium at a concentration of 5 μM (in the M16-BSA medium containing the sperm). Sperm was incubated in M16-BSA medium with or without clofilium and then added to M16 droplets containing the cumulus comprising the oocytes. Two-cell embryos were counted at 48 h post insemination (n=3). The number of oocytes reaching the two-cell stage were counted at 48 hours after fertilization. Two different concentrations of clofilium were tested: 0.2 μM of clofilium and 5 μM of clofilium (in the M16-BSA medium containing the sperm). The sperm incubation time prior fertilization was 12 hours. The test related to the ability of mouse sperm to fertilize oocytes, sperm being incubated prior fertilization in a medium containing quinidine with regard to a control medium, without quinidine. The control medium was the M16-BSA medium containing the sperm (“control”). It was compared to the same medium further including quinidine, at various concentrations 5 μM quinidine (“5 μM quinidine”), 10 μM quinidine (“10 μM quinidine”), 25 μM quinidine (“25 μM quinidine”) and 100 μM quinidine (“100 μM quinidine”).

Compound: C=C[C@H]1CN2CC[C@H]1C[C@@H]2[C@@H](O)c1ccnc2ccc(OC)cc12 [quinidine, (9S)-6′-methoxycinchonan-9-ol]
- percentage of 2-cell embryos vs mature oocytes at 24 h post fertilization (sperm lifespan): better lifespan than the non-treated
